Converted amounts (≈) assume the structure as drawn. The source made the active and inactive calls. The rule behind the calls is not given here. Bridge positions count the residues as written; N and C are the ends. Peptide text beside a SMILES is read from it. I, II: the chains in the order shown. * marks the point of attachment. Octanoyl = CCCCCCCC(=O)*
Assays:
[1] = Toxicity in New Zealand white rabbit erythrocytes assessed as hemolytic activity after 60 mins; type: cell-based, Oryctolagus cuniculus; details: erythrocyte, 1 h
[2] = test system: Klebsiella pneumoniae; assay: Antibacterial activity against Klebsiella pneumoniae DM4299 after 24 hrs by broth microdilution method; type: functional; details: DM4299, 24 h
[3] = test system: Pseudomonas aeruginosa; assay: Antibacterial activity against Pseudomonas aeruginosa DM23155 after 24 hrs by broth microdilution method; type: functional; details: DM23155, 24 h
[4] = test system: Escherichia coli; assay: Antibacterial activity against Escherichia coli ATCC 25922 after 24 hrs by broth microdilution method; type: functional; details: ATCC 25922, 24 h
[5] = test system: Pseudomonas aeruginosa; assay: Antibacterial activity against Pseudomonas aeruginosa DR18531 after 24 hrs by broth microdilution method; type: functional; details: DR18531, 24 h
[6] = test system: Pseudomonas aeruginosa; assay: Antibacterial activity against Pseudomonas aeruginosa DM4150R after 24 hrs by broth microdilution method; type: functional
[7] = test system: Pseudomonas aeruginosa; assay: Antibacterial activity against Pseudomonas aeruginosa DM23257 after 24 hrs by broth microdilution method; type: functional; details: DM23257, 24 h
[8] = test system: Pseudomonas aeruginosa; assay: Antibacterial activity against Pseudomonas aeruginosa DM23376 after 24 hrs by broth microdilution method; type: functional; details: DM23376, 24 h
[9] = test system: Pseudomonas aeruginosa; assay: Antibacterial activity against Pseudomonas aeruginosa DU14476 after 24 hrs by broth microdilution method; type: functional; details: DU14476, 24 h
[10] = test system: Pseudomonas aeruginosa; assay: Antibacterial activity against Pseudomonas aeruginosa DR5790 after 24 hrs by broth microdilution method; type: functional; details: DR5790, 24 h
[11] = test system: Pseudomonas aeruginosa; assay: Antibacterial activity against Pseudomonas aeruginosa DR4877 after 24 hrs by broth microdilution method; type: functional; details: DR4877, 24 h
[12] = test system: Pseudomonas aeruginosa; assay: Antibacterial activity against Pseudomonas aeruginosa ATCC 9027 after 24 hrs by broth microdilution method; type: functional; details: ATCC 9027, 24 h
[13] = test system: Pseudomonas aeruginosa; assay: Antibacterial activity against Pseudomonas aeruginosa ATCC 27853 after 24 hrs by broth microdilution method; type: functional; details: ATCC 27853, 24 h
[14] = test system: Lipopolysaccharide (LPS); assay: Displacement of dansylcadaverine from Escherichia coli 0111:B4 LPS at 15 to 30 uM after 5 mins by high-throughput fluorescence displacement assay
[15] = test system: Lipopolysaccharide (LPS); assay: Induction of Escherichia coli 0111:B4 LPS neutralization using p-nitroaniline assessed as concentration required to neutralize 50% after 1 hr by limulus amebocyte lysate assay
[16] = test system: Pseudomonas aeruginosa; assay: Induction of 1-N-phenylnaphthylamine uptake in Pseudomonas aeruginosa DM23155 at 400 uM after 1 hr by fluorescence assay relative to polymyxin B; type: functional
[17] = test system: Pseudomonas aeruginosa; assay: Antibacterial activity against Pseudomonas aeruginosa DM23155 assessed as log reduction of viable count at 2 times MIC after 5 hrs by time-kill assay relative to control; type: functional
[18] = test system: Pseudomonas aeruginosa; assay: Antibacterial activity against Pseudomonas aeruginosa DM23155 assessed as log reduction of viable count at 2 times MIC after 24 hrs by time-kill assay; type: functional, organism-based
[19] = test system: Pseudomonas aeruginosa; assay: Antibacterial activity against Pseudomonas aeruginosa DM23155 assessed as log reduction of viable count at 1 time MIC after 24 hrs by time-kill assay; type: functional, organism-based
[20] = test system: Pseudomonas aeruginosa; assay: Antibacterial activity against Pseudomonas aeruginosa DM23155 assessed as log reduction of viable count at 1 time MIC after 5 hrs by time-kill assay relative to control; type: functional
[21] = test system: Escherichia coli; assay: Antibacterial activity against Escherichia coli DS17232 after 24 hrs by broth microdilution method; type: functional; details: DS17232, 24 h
[22] = test system: Escherichia coli; assay: Antibacterial activity against Escherichia coli DM17528 after 24 hrs by broth microdilution method; type: functional; details: DM17528, 24 h
[23] = test system: Klebsiella pneumoniae; assay: Antibacterial activity against Klebsiella pneumoniae DS07955 after 24 hrs by broth microdilution method; type: functional; details: DS07955, 24 h
[24] = test system: Klebsiella pneumoniae; assay: Antibacterial activity against Klebsiella pneumoniae DS16260 after 24 hrs by broth microdilution method; type: functional; details: DS16260, 24 h
[25] = test system: Klebsiella pneumoniae; assay: Antibacterial activity against Klebsiella pneumoniae DU31158 after 24 hrs by broth microdilution method; type: functional; details: DU31158, 24 h
[26] = test system: Klebsiella pneumoniae; assay: Antibacterial activity against Klebsiella pneumoniae DB55301 after 24 hrs by broth microdilution method; type: functional; details: DB55301, 24 h
[27] = test system: Pseudomonas aeruginosa; assay: Induction of cytoplasmic membrane depolarization in Pseudomonas aeruginosa DM23155 at 4 times MIC after 1 hr by fluorescence assay; type: functional, organism-based
[28] = test system: Pseudomonas aeruginosa; assay: Induction of cytoplasmic membrane disruption in Pseudomonas aeruginosa DM23155 assessed as membrane integrity at 1 to 2 times MIC after 1 hr by fluorescence assay; type: functional
[29] = Induction of calcein leakage from DOPE/DOPG artificial membrane at 1:32 ratio of compound to lipid by fluorescence assay; type: physicochemical
[30] = Induction of calcein leakage from DOPC artificial membrane at 1:32 ratio of compound to lipid by fluorescence assay; type: physicochemical
[31] = test system: Pseudomonas aeruginosa; assay: Antibacterial activity against Pseudomonas aeruginosa DM23155 assessed as log reduction of viable count at 2 times MIC after 30 mins by time-kill assay relative to control; type: functional
[32] = test system: Pseudomonas aeruginosa; assay: Antibacterial activity against Pseudomonas aeruginosa DM23155 assessed as log reduction of viable count MIC up to 24 hrs by time-kill assay; type: functional, organism-based
[33] = Toxicity in human corneal fibroblasts assessed as cell viability at > 2000 uM after 4 hrs by ATP luminescent assay; type: cell-based; details: fibroblast
[34] = Toxicity in human corneal fibroblasts assessed as cell viability at > 2000 uM after 4 hrs by LDH assay; type: cell-based; details: fibroblast
[35] = test system: Mus musculus; assay: Corneal toxicity in mouse at 1 to 3 mg/ml applied topically 5 times per day measured 24 hrs after last dose; type: organism-based; details: in vivo, topical_or_ocular
[36] = test system: Mus musculus; assay: Corneal toxicity in mouse at 6.25 mg/kg, iv measured 24 hrs after last dose; type: organism-based; details: in vivo
[37] = test system: Mus musculus; assay: Corneal toxicity in mouse at 100 mg/kg, ip measured 24 hrs after last dose; type: organism-based; details: in vivo
[38] = test system: Pseudomonas aeruginosa; assay: Antibacterial activity against Pseudomonas aeruginosa DM23155 after 24 hrs by checkerboard assay in presence of nalidixic acid; type: functional
[39] = test system: Pseudomonas aeruginosa; assay: Antibacterial activity against Pseudomonas aeruginosa DM23155 after 24 hrs by checkerboard assay in presence of gentamicin; type: functional
[40] = test system: Pseudomonas aeruginosa; assay: Antibacterial activity against Pseudomonas aeruginosa DM23155 after 24 hrs by checkerboard assay in presence of erythromycin; type: functional
[41] = test system: Pseudomonas aeruginosa; assay: Antibacterial activity against Pseudomonas aeruginosa DM23155 after 24 hrs by checkerboard assay in presence of streptomycin; type: functional
[42] = test system: Pseudomonas aeruginosa; assay: Antibacterial activity against Pseudomonas aeruginosa DM23155 after 24 hrs by checkerboard assay in presence of kanamycin; type: functional
[43] = test system: Escherichia coli; assay: Antibacterial activity against Escherichia coli ATCC 25922 after 24 hrs by checkerboard assay in presence of nalidixic acid; type: functional
[44] = test system: Escherichia coli; assay: Antibacterial activity against Escherichia coli ATCC 25922 after 24 hrs by checkerboard assay in presence of gentamicin; type: functional
[45] = test system: Escherichia coli; assay: Antibacterial activity against Escherichia coli ATCC 25922 after 24 hrs by checkerboard assay in presence of erythromycin; type: functional
[46] = test system: Escherichia coli; assay: Antibacterial activity against Escherichia coli ATCC 25922 after 24 hrs by checkerboard assay in presence of streptomycin; type: functional
[47] = test system: Escherichia coli; assay: Antibacterial activity against Escherichia coli ATCC 25922 after 24 hrs by checkerboard assay in presence of kanamycin; type: functional

## N=C(N)NCCC[C@H](NC(=O)CNC(=O)CNC(=O)[C@H](CCCCN)NC(=O)[C@H](CCCNC(=N)N)NC(=O)CNC(=O)[C@@H](N)CCCNC(=N)N)C(=O)N[C@@H](CCCNC(=N)N)C(=O)NCCCC[C@H](NC(=O)[C@H](CCCNC(=N)N)NC(=O)[C@H](CCCNC(=N)N)NC(=O)CNC(=O)CNC(=O)[C@H](CCCCN)NC(=O)[C@H](CCCNC(=N)N)NC(=O)CNC(=O)[C@@H](N)CCCNC(=N)N)C(=O)N[C@@H](CCCCN)C(=O)O (I: H-RGRKGGRRKK-OH / II: H-RGRKGGRR; amide I:9-II:C)
[1]
  HC10: > 10000 µg/mL
[2]
  MIC: 3 µM (≈ 6.37 µg/mL)
[3]
  MIC: 6 µM (≈ 12.7 µg/mL)
[4]
  MIC: 6 µM (≈ 12.7 µg/mL)
[5]
  MIC: 3 µM (≈ 6.37 µg/mL)
[6]
  MIC: 6 µM (≈ 12.7 µg/mL)
[7]
  MIC: 10 µM (≈ 21.2 µg/mL)
[8]
  MIC: 6 µM (≈ 12.7 µg/mL)
[9]
  MIC: 6 µM (≈ 12.7 µg/mL)
[10]
  MIC: 6 µM (≈ 12.7 µg/mL)
[11]
  MIC: 6 µM (≈ 12.7 µg/mL)
[12]
  MIC: 6 µM (≈ 12.7 µg/mL)
[13]
  MIC: 6 µM (≈ 12.7 µg/mL)
[14]
  Activity: 84.8%
[15]
  EC50: > 1000 µM
[16]
  Activity: 1.9%
[17]
  FC: 10
[18]
  Activity: Active
[19]
  Activity: inactive
[20]
  FC: 2.7

## CCCCCCCC(=O)N[C@@H](CCCNC(=N)N)C(=O)NCC(=O)N[C@@H](CCCNC(=N)N)C(=O)N[C@@H](CCCCN)C(=O)N[C@H](C(=O)N[C@H](C(=O)N[C@@H](CCCNC(=N)N)C(=O)N[C@@H](CCCNC(=N)N)C(=O)NCCCC[C@H](NC(=O)[C@H](CCCNC(=N)N)NC(=O)[C@H](CCCNC(=N)N)NC(=O)[C@@H](NC(=O)[C@@H](NC(=O)[C@H](CCCCN)NC(=O)[C@H](CCCNC(=N)N)NC(=O)CNC(=O)[C@H](CCCNC(=N)N)NC(=O)CCCCCCC)C(C)C)C(C)C)C(=O)N[C@@H](CCCCN)C(=O)O)C(C)C)C(C)C (I: Octanoyl-RGRKVVRRKK-OH / II: Octanoyl-RGRKVVRR; amide I:9-II:C)
[1]
  HC10: > 10000 µg/mL
[2]
  MIC: 3 µM (≈ 7.63 µg/mL)
[3]
  MIC: 3 µM (≈ 7.63 µg/mL)
[4]
  MIC: 6 µM (≈ 15.3 µg/mL)
[5]
  MIC: 1.5 µM (≈ 3.81 µg/mL)
[6]
  MIC: 3 µM (≈ 7.63 µg/mL)
[7]
  MIC: 3 µM (≈ 7.63 µg/mL)
[8]
  MIC: 3 µM (≈ 7.63 µg/mL)
[9]
  MIC: 3 µM (≈ 7.63 µg/mL)
[10]
  MIC: 3 µM (≈ 7.63 µg/mL)
[11]
  MIC: 3 µM (≈ 7.63 µg/mL)
[12]
  MIC: 3 µM (≈ 7.63 µg/mL)
[13]
  MIC: 3 µM (≈ 7.63 µg/mL)
[21]
  MIC: 10 µM (≈ 25.4 µg/mL)
[22]
  MIC: 10 µM (≈ 25.4 µg/mL)
[23]
  MIC: 10 µM (≈ 25.4 µg/mL)
[24]
  MIC: 3 µM (≈ 7.63 µg/mL)
[25]
  MIC: 10 µM (≈ 25.4 µg/mL)
[26]
  MIC: 10 µM (≈ 25.4 µg/mL)
[14]
  Activity: 121%
[15]
  EC50: 73.4 µM
[27]
  Activity: Active
[28]
  Activity: >80%
[29]
  Activity: Active
[30]
  Activity: Active
[31]
  FC: 3
[32]
  Activity: Dose-dependent effect
[18]
  Activity: Active
[33]
  Activity: > 2000 µM
[34]
  Activity: > 2000 µM
[35]
  Activity: Non-toxic
[36]
  Activity: Non-toxic
[37]
  Activity: Non-toxic
[38]
  fractional inhibitory concentration index (FICI): 0.5
[39]
  fractional inhibitory concentration index (FICI): 0.38
[40]
  fractional inhibitory concentration index (FICI): 0.56
[41]
  fractional inhibitory concentration index (FICI): 0.56
[42]
  fractional inhibitory concentration index (FICI): 0.56
[43]
  fractional inhibitory concentration index (FICI): 0.5
[44]
  fractional inhibitory concentration index (FICI): 0.31
[45]
  fractional inhibitory concentration index (FICI): 0.56
[46]
  fractional inhibitory concentration index (FICI): 0.31
[47]
  fractional inhibitory concentration index (FICI): 0.31

From ChEMBL document CHEMBL3603789, “N-Lipidated Peptide Dimers: Effective Antibacterial Agents against Gram-Negative Pathogens through Lipopolysaccharide Permeabilization” (J Med Chem, 2015)
